These are literature values, as cited in US20180110725A1, “COMPOSITIONS, METHODS AND KITS FOR THE SAFE INHALED DELIVERY OF TARGETED OPIOIDS FOR THE TREATMENT OF PAIN AND ADDICTION” (Somniferum Labs LLC, priority 2016, published 2018).

The conditions of data set [1]: room temperature.
In another data set the target is μ-1 opioid receptor (Homo sapiens, UniProt P35372). The following applies: Wittwer and Kern, 2006.
The conditions of data set [2]: in vivo.

μ-1 opioid receptor, sequence (P35372 whole entry): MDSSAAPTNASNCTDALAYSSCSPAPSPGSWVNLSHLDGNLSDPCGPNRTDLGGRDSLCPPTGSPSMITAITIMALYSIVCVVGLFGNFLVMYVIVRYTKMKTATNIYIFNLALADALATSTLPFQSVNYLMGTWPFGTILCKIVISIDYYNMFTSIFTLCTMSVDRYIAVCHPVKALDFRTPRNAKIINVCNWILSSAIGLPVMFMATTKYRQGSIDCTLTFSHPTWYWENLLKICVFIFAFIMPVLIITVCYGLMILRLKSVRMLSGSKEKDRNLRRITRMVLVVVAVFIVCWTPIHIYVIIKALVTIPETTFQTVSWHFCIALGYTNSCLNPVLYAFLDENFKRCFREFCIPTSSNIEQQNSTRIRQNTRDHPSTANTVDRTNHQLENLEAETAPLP

As to `Br.CN1CC[C@]23c4c5ccc(O)c4O[C@H]2[C@@H](O[C@@H]2O[C@H](C(=O)O)[C@@H](O)[C@H](O)[C@H]2O)C=C[C@H]3[C@H]1C5` [Morphine-6 glucuronide bromide], the “storage time with little or no degradation” value in data set [1] is on record as “up to 6 years”.
Take `CN1CC[C@]23c4c5ccc(O)c4O[C@H]2[C@@H](O[C@@H]2O[C@H](C(=O)O)[C@@H](O)[C@H](O)[C@H]2O)C=C[C@H]3[C@H]1C5` [Morphine-6-glucuronide]: the “potency relative to morphine” value at μ-1 opioid receptor was “higher potency than morphine”.
With `CC(=O)O.CN1CCC23c4c5ccc(O)c4OC2C(OC2OC(C(=O)O)C(O)C(O)C2O)C=CC3C1C5` (stereo not shown) [morphine-6-glucuronide acetate], in data set [2], the duration of activity entry is given as “relatively long duration of activity”.
In the case of morphine-6-glucuronide sulfate, in data set [2], the duration of activity result was “relatively long duration of activity”.
